According to PMC5951806, “Rapid labelling and covalent inhibition of intracellular native proteins using ligand-directed N-acyl-N-alkyl sulfonamide” (Nature Communications, 2018):

What was measured:
[1] = test system: immunoglobulin gamma-1 heavy chain; assay: TMT LC-MSMS of 11-labelled proteins; format: cell-based, Homo sapiens
Source text: Supplement 41467_2018_4343_MOESM4_ESM.xlsx, sheet "Exp3" | column: Abundance Ratio: (11) / (11 with PU-H71); Abundance Ratio: (11) / (DMSO); Abundances (Grouped): 11; Abundances (Grouped): 11 with PU-H71

proteins of SKBR3 cells = assay: Identification of 11-labelled proteins in live cells (TMT quantitative LC-MSMS), all proteins; format: cell-based, human; settings: 0.5 µM, 3 h, three ligand-specific targets and three off-targets
Source text: (§1) The labelled proteins were enriched by immunoprecipitation with an anti-fluorescein antibody and tryptically digested in gel. Digested peptides were modified with Light- (L-), Medium- (M-), or Heavy- (H-) TMT reagent for samples treated with 11, 11 with PU-H71 (as competitive condition), or DMSO (vehicle), respectively, and mixed in a 1:1:1 ratio for LC-MSMS analysis. We performed three experimental replicates, in which proteins detected and quantified at least twice were selected as identified proteins. According to the related approach of Cravatt et al[44], the proteins having L/H (11/DMSO) ratios >5 were defined as 11-labelled proteins. […] On the basis of these criteria, we identified 6 proteins that react with 11, including three ligand-specific targets (Hsp90α (HSP90AA1), Hsp90β (HSP90AB1), and Grp94 (HSP90B1)) and three off-targets (Trifunctional enzyme subunit α (HADHA), Tubulin-α (TUBA1B), and ADP/ATP translocase 3 (SLC25A6)) (Fig. 5d, e and Supplementary Data 1). […] Grp94, a HSP90 isomer, was previously reported to be a PU-H71 specific target. TRAP-1, another Hsp90 isomer that can bind PU-H71, on the other hand, was not identified as 11-target by our criteria.
SKBR3 human breast cancer cells (2.0 × 10^6 cells) were seeded on a 10 cm dish and cultured for 3 days in McCoy’s 5A in a 5% CO2 humidified chamber at 37 °C. […]

[2] = test system: Isoform Long of Glucose-6-phosphate 1-dehydrogenase (G6PD); assay: TMT LC-MSMS of 11-labelled proteins; format: cell-based, Homo sapiens
Source text: as §1
(§2) SKBR3 human breast cancer cells (2.0 × 10^6 cells) were seeded on a 10 cm dish and cultured for 3 days in McCoy’s 5A in a 5% CO2 humidified chamber at 37 °C. […] As competitive experiments, the labelling was conducted in the presence of PU-H71 (10 µM). After labelling, the cells were washed twice with PBS, and lysed with RIPA buffer. […] The supernatant was mixed with chilled acetone and incubated overnight at −80 °C. The protein precipitates were solubilized by sonication in 1 mL of RIPA buffer containing 1% SDS, and then 10-fold diluted with RIPA buffer to reduce SDS concentration to c.a. 0.1%. The protein solution (containing 1 mg of protein) was mixed with Protein G Sepharose 4 Fast Flow (GE Healthcare) and rotated at 4 °C for 1 h. After removal of the beads, the remaining supernatant was mixed with anti-fluorescein antibody (Abcam, ab19491, 7:10000) and rotated at 4 °C for 1 h, followed by addition of fresh Protein G Sepharose 4 Fast Flow and further incubation at 4 °C for 4 h. The beads were washed five times with RIPA buffer and once with PBS. Proteins were eluted from the beads by addition of 2 × sample buffer containing 100 mM DTT and boiling at 95 °C for 5 min. The samples were subjected to a 7.5% SDS–PAGE gel (Mini-PROTEAN TGX Gels, BioRad), and electrophoresed as the migration distance of dye front is about 10 mm. Each lane was excised (height, 10 mm), and treated with a 47.5% methanol / 47.5% pure water / 5% acetic acid for 20 min, a 50% methanol / 50% pure water for 10 min, and in pure water for 10 min. The gel pieces were dehydrated with 100% acetonitrile, and then swelled with 200 μL of 100 mM TEAB (triethylamine bicarbonate) buffer containing 10 mM DTT and heated at 56 °C for 30 min. The solutions were replaced with 200 µL of 100 mM TEAB buffer containing 55 mM iodoacetamide and incubated for 45 min in the dark. The gel pieces were washed with 100 mM TEAB buffer and dehydrated in acetonitrile. This step was repeated once. The gels were reswelled in 100 mM TEAB buffer containing 10 ng/μL Sequencing Grade Trypsin (Promega) and incubated overnight at 37 °C. To the gels, 50 μL of an extraction solution (50% acetonitrile, 0.1% TFA) was added. After 10 min incubation, the supernatants were collected to new tubes, and this process was repeated twice. Extracted peptides were dried in vacuo and reconstituted with 25 μL of 100 mM TEAB buffer.

[3] = test system: Isoform 4 of 4F2 cell-surface antigen heavy chain (SLC3A2); assay: TMT LC-MSMS of 11-labelled proteins; format: cell-based, Homo sapiens
Source text: as §1, §2

[4] = test system: Isoform 2 of Transketolase (TKT); assay: TMT LC-MSMS of 11-labelled proteins; format: cell-based, Homo sapiens
Source text: as §1, §2

[5] = sheet Exp1, SKBR3 cells, 11 0.5 µM 3 h vs DMSO
[6] = sheet Exp1, SKBR3 cells, 11 0.5 µM 3 h vs with PU-H71 10 µM
[7] = sheet Merged, SKBR3 cells, 11 0.5 µM 3 h vs DMSO
[8] = sheet Merged, SKBR3 cells, 11 0.5 µM 3 h vs with PU-H71 10 µM

With `CC(=O)Oc1ccc2c(c1)Oc1cc(OC(C)=O)ccc1C21OC(=O)c2cc(C(=O)NCCOCCOCCNC(=O)CCCC(=O)N(CC#N)S(=O)(=O)c3ccc(C(=O)NCCCn4c(Sc5cc6c(cc5I)OCO6)nc5c(N)ncnc54)cc3)ccc21` [compound 11] the “Abundance Ratio: (11) / (11 with PU-H71)” value ([1]; Exp3) was 0.809, the “Abundance Ratio: (11) / (DMSO)” value ([1]; Exp3) was 0.806 and the “Abundances (Grouped): 11” value ([1]; Exp3) was 6402. For the same compound, the “Abundances (Grouped): 11 with PU-H71” value ([1]; Exp3, with PU-H71) was 7910.4, the “number of proteins that react with 11 (L/H ratios >5)” value (proteins of SKBR3 cells) was 6 and the “Abundance Ratio: (11) / (DMSO)” value [2, 5] was 6.472. The “Abundance Ratio: (11) / (11 with PU-H71)” value [2, 6] was 0.948, the “Abundance Ratio: (11) / (11 with PU-H71)” value ([2]; sheet Exp2, G6PD) was 0.848 and the “Abundance Ratio: (11) / (DMSO)” value ([2]; sheet Exp2, G6PD) was 1.663. For the same compound, the “Abundances (Grouped): 11” value ([2]; sheet Exp2, G6PD) was 63.2, the “Abundances (Grouped): 11 with PU-H71” value ([2]; sheet Exp2, G6PD, with PU-H71) was 74.5 and the “Abundance Ratio: (11) / (DMSO)” value [2, 7] was 3.281. The “Abundance Ratio: (11) / (11 with PU-H71)” value [2, 8] was 0.897, the “Abundance Ratio: (11) / (11 with PU-H71)” value ([3]; Exp3, SLC3A2) was 0.823 and the “Abundance Ratio: (11) / (DMSO)” value ([3]; Exp3, SLC3A2) was 3.728. For the same compound, the “Abundances (Grouped): 11” value ([3]; Exp3, SLC3A2) was 115.2, the “Abundances (Grouped): 11 with PU-H71” value ([3]; Exp3, SLC3A2) was 140 and the “Abundance Ratio: (11) / (DMSO)” value [3, 5] was 3.951. For the same compound, the “Abundance Ratio: (11) / (11 with PU-H71)” value [3, 6] was 0.737, the “Abundance Ratio: (11) / (11 with PU-H71)” value ([3]; sheet Exp2, SLC3A2) was 0.802 and the “Abundance Ratio: (11) / (DMSO)” value ([3]; sheet Exp2, SLC3A2) was 3.119. For the same compound, the “Abundances (Grouped): 11” value ([3]; sheet Exp2, SLC3A2) was 91.7, the “Abundances (Grouped): 11 with PU-H71” value ([3]; sheet Exp2, SLC3A2) was 114.4 and the “Abundance Ratio: (11) / (DMSO)” value [3, 7] was 3.119. The “Abundance Ratio: (11) / (11 with PU-H71)” value [3, 8] was 0.802, the “Abundance Ratio: (11) / (11 with PU-H71)” value ([4]; Exp3, TKT) was 0.724 and the “Abundance Ratio: (11) / (DMSO)” value ([4]; Exp3, TKT) was 1.695. The “Abundances (Grouped): 11” value ([4]; Exp3, TKT) was 45.6, the “Abundances (Grouped): 11 with PU-H71” value ([4]; Exp3, TKT) was 63 and the “Abundance Ratio: (11) / (DMSO)” value [4, 5] was 2.131. The “Abundance Ratio: (11) / (11 with PU-H71)” value [4, 6] was 0.917, the “Abundance Ratio: (11) / (11 with PU-H71)” value ([4]; sheet Exp2, TKT) was 0.939 and the “Abundance Ratio: (11) / (DMSO)” value ([4]; sheet Exp2, TKT) was 2.163. For the same compound, the “Abundances (Grouped): 11” value ([4]; sheet Exp2, TKT) was 103.4, the “Abundances (Grouped): 11 with PU-H71” value ([4]; sheet Exp2, TKT) was 110.1 and the “Abundance Ratio: (11) / (DMSO)” value [4, 7] was 2.131. For the same compound, the “Abundance Ratio: (11) / (11 with PU-H71)” value [4, 8] was 0.917.
